Data published in patent publication US20230295234A1, “ANTIMICROBIAL PEPTIDOMIMETICS” (SPEXIS AG, priority 2020, published 2023).
Read-outs that look alike come from different tables or passages of the source. Bridge positions count the residues as written; N and C are the ends. Square brackets hold non-standard residues; d marks the D form. Peptide text beside a SMILES is read from it. Pro(4R-NH2) = N[C@H]1CN[C@H](C(=O)O)C1; Pen = CC(C)(S)[C@H](N)C(=O)O; dDab = NCC[C@@H](N)C(=O)O; Nle = CCCC[C@H](N)C(=O)O; Dab = NCC[C@H](N)C(=O)O

Columns and labels:
[1] = system: human red blood cells (hRBC); assay: Hemolysis of human red blood cells; format: cell-based; details: red cells of human, 1 h
Method: Lyophilized peptides were weighed on a Microbalance (Mettler MT5) and dissolved in sterile water to a final concentration of 1 mg/mL. Stock solutions were kept at +4° C., light protected. The peptides were tested for their hemolytic activity against human red blood cells (hRBC). Fresh hRBC were washed three times with phosphate buffered saline (PBS) and centrifuged for 5 min at 3000×g. Compounds (200 μg/mL) were incubated with 20% hRBC (v/v) for 1 h at 37° C. and shaking at 300 rpm. […] The samples were centrifuged, the supernatants were 8-fold diluted in PBS buffer and the optical densities (OD) were measured at 540 nm. […] Percent hemolysis was calculated as follows: (OD540peptide/OD540H2O)×100%.

[2] = system: Klebsiella pneumoniae SSI3010; details: SSI3010
Method: (§1) Lyophilized peptides were weighed on a Microbalance (Mettler MT5) and dissolved in sterile water to a final concentration of 1 mg/mL. Stock solutions were kept at +4° C., light protected.
(§2) Colonies of the microorganisms were diluted in saline (0.85%, NaCl) and adjusted using a McFarland reader (bioMérieux SA, Marcy-l'Etoile, France) to 0.5 McFarland standard. Subsequently, the bacterial suspension was diluted in Mueller-Hinton II (MHII, cation adjusted) broth to give approximately 5×10^5 colony forming units (CFU/mL).
(§3) 10^6 colony forming units (CFU)/mL. Aliquots (90 μl) of inoculate were added to 10 μl of water+P-80 (Polysorbate 80, 0.002% final concentration) containing the peptide in serial two-fold dilutions at 10 fold final concentration. The following microorganisms were used to determine antibiotic selectivity of the peptides: Escherichia coli ATCC 25922, Escherichia coli MCR-1 Af 45 and Klebsiella pneumoniae SSI3010.

[3] = system: Escherichia coli MCR-1 Af 45
Method: as §1, §2, §3

[4] = system: Escherichia coli ATCC 25922; details: ATCC 25922
Method: as §1, §2, §3

[5] = Mueller-Hinton broth II, 18-20 hours at 35° C.

| Klebsiella pneumoniae SSI3010 MIC [2] [µg/mL] | Escherichia coli MCR-1 Af 45 MIC ([3]; MCR-1 Af 45) [µg/mL] | Escherichia coli ATCC 25922 MIC [4] [µg/mL] | Structure (SMILES) | Hemolysis at 0.2 g/L [1] [%] | Escherichia coli MCR-1 Af 45 MIC [3, 5] [µg/mL] |
| --- | --- | --- | --- | --- | --- |
| 0.25 | 0.125 | 0.25 | CC[C@H](C)[C@H](NC(=O)[C@@H](NC(=O)[C@@H]1CCCN1C(=O)[C@@H](NC(=O)[C@@H]1CCCN1C(=O)[C@H](CCCCN)NC(=O)[C@@H](N)CCCCN)C(C)C)[C@@H](C)CC)C(=O)N[C@@H](Cc1ccc(O)cc1)C(=O)N[C@H]1CSSC[C@@H](C(=O)N[C@@H](CCN)C(=O)N(CCCNC(=N)N)CC(=O)N[C@@H](Cc2ccc(O)cc2)C(=O)O)NC(=O)[C@H](CCCCN)NC(=O)[C@@H](CCN)NC(=O)[C@H]([C@@H](C)O)NC(=O)[C@H](CCN)NC(=O)[C@H](CCCNC(=N)N)NC(=O)[C@H](CC(N)=O)NC1=O [Example 111] (HELM PEPTIDE1{K.K.P.V.P.I.I.Y.C.N.R.[Dab].T.[NCC[C@@H](N[*:1])C(=O)[*:2]].K.C.[Dab].[N=C(N)NCCCN(CC(=O)[*:2])[*:1]].Y}$PEPTIDE1,PEPTIDE1,9:R3-16:R3$$$V2.0; N-terminus assumed) | 0 |  |
| 0.125 | 0.0625 | 0.03125 | CC[C@H](C)[C@H](NC(=O)[C@@H]1C[C@@H](O)CN1C(=O)[C@@H](NC(=O)[C@@H]1C[C@@H](O)CN1C(=O)[C@H](CCCCN)NC(=O)[C@@H](N)CCCCN)C(C)C)C(=O)N[C@H](C(=O)N[C@@H](Cc1ccc(O)cc1)C(=O)N[C@H]1CSSC[C@@H](C(=O)N[C@@H](CCN)C(=O)N[C@@H](CCCNC(=N)N)C(=O)N[C@@H](Cc2ccc(O)cc2)C(=O)O)NC(=O)[C@H](CCCCN)NC(=O)[C@@H](CCN)NC(=O)[C@H]([C@@H](C)O)NC(=O)[C@H](CCN)NC(=O)[C@H](CCCNC(=N)N)NC(=O)[C@H](CC(N)=O)NC1=O)[C@@H](C)O [Example 121, Lys-Lys-Hyp-Val-Hyp-Ile-Thr-Tyr-Cys-Asn-Arg-Dab-Thr-^DDab-Lys-Cys-Dab-Arg-Tyr] (HELM PEPTIDE1{K.K.[Hyp].V.[Hyp].I.T.Y.C.N.R.[Dab].T.[NCC[C@@H](N[*:1])C(=O)[*:2]].K.C.[Dab].R.Y}$PEPTIDE1,PEPTIDE1,9:R3-16:R3$$$V2.0) | 0 |  |
| 0.125 | 0.0625 | 0.25 | CC[C@H](C)[C@H](NC(=O)CN(CCN)C(=O)[C@@H](NC(=O)[C@@H]1C[C@@H](O)CN1C(=O)[C@H](CCCCN)NC(=O)[C@@H](N)CCCCN)C(C)C)C(=O)N[C@H](C(=O)N[C@@H](Cc1ccc(O)cc1)C(=O)N[C@@H]1C(=O)N[C@@H](CC(N)=O)C(=O)N[C@@H](CCCNC(=N)N)C(=O)N[C@@H](CCN)C(=O)N[C@@H]([C@@H](C)O)C(=O)N[C@H](CCN)C(=O)N[C@@H](CCCCN)C(=O)N[C@H](C(=O)N[C@@H](Cc2ccc(O)cc2)C(=O)N[C@@H](CCCNC(=N)N)C(=O)N[C@@H](Cc2ccc(O)cc2)C(=O)O)CSSC1(C)C)[C@@H](C)O [Example 129, Lys-Lys-Hyp-Val-Ndab-Ile-Thr-Tyr-Pen-Asn-Arg-Dab-Thr-^DDab-Lys-Cys-Tyr-Arg-Tyr] (HELM PEPTIDE1{K.K.[Hyp].V.[NCCN(CC(=O)[*:2])[*:1]].I.T.Y.[Pen].N.R.[Dab].T.[NCC[C@@H](N[*:1])C(=O)[*:2]].K.C.Y.R.Y}$PEPTIDE1,PEPTIDE1,9:R3-16:R3$$$V2.0) | 0 |  |
| 0.25 | 0.0625 | 0.0625 | CCCC[C@H](NC(=O)[C@H](CCCNC(=N)N)NC(=O)[C@H](CCN)NC(=O)[C@@H]1CSSC(C)(C)[C@H](NC(=O)[C@H](Cc2ccc(O)cc2)NC(=O)[C@@H](NC(=O)[C@@H](NC(=O)[C@@H]2CCCN2C(=O)[C@@H](NC(=O)[C@@H]2CCCN2)C(C)C)[C@@H](C)CC)[C@@H](C)CC)C(=O)N[C@@H](CC(N)=O)C(=O)N[C@@H](CCCNC(=N)N)C(=O)N[C@@H](CCN)C(=O)N[C@@H]([C@@H](C)O)C(=O)N[C@H](CCN)C(=O)N[C@@H](CCCCN)C(=O)N1)C(=O)O [Example 2, Pro-Val-Pro-Ile-Ile-Tyr-Pen-Asn-Arg-Dab-Thr-^DDab-Lys-Cys-Dab-Arg-Nle] (HELM PEPTIDE1{P.V.P.I.I.Y.[Pen].N.R.[Dab].T.[NCC[C@@H](N[*:1])C(=O)[*:2]].K.C.[Dab].R.[Nle]}$PEPTIDE1,PEPTIDE1,7:R3-14:R3$$$V2.0) | 0 |  |
| 0.125 | 0.0625 | 0.0625 | CCCC[C@H](NC(=O)[C@H](CCCNC(=N)N)NC(=O)[C@H](CCN)NC(=O)[C@@H]1CSSC(C)(C)[C@H](NC(=O)[C@H](Cc2ccc(O)cc2)NC(=O)[C@@H](NC(=O)[C@@H](NC(=O)[C@@H]2C[C@@H](N)CN2C(=O)[C@@H](NC(=O)[C@@H]2C[C@@H](N)CN2)C(C)C)[C@@H](C)CC)[C@@H](C)O)C(=O)N[C@@H](CC(N)=O)C(=O)N[C@@H](CCCNC(=N)N)C(=O)N[C@@H](CCN)C(=O)N[C@@H]([C@@H](C)O)C(=O)N[C@H](CCN)C(=O)N[C@@H](CCCCN)C(=O)N1)C(=O)O [Example 9, Pro((4R)NH2)-Val-Pro((4R)NH2)-Ile-Thr-Tyr-Pen-Asn-Arg-Dab-Thr-^DDab-Lys-Cys-Dab-Arg-Nle] (H-[Pro(4R-NH2)]V[Pro(4R-NH2)]ITY[Pen]NR[Dab]T[dDab]KC[Dab]R[Nle]-OH; disulfide 7-14) | 0 |  |

| Structure (SMILES) | Klebsiella pneumoniae SSI3010 MIC [2] [µg/mL] | Escherichia coli MCR-1 Af 45 MIC ([3]; MCR-1 Af 45) [µg/mL] | Escherichia coli ATCC 25922 MIC [4] [µg/mL] | Hemolysis at 0.2 g/L [1] [%] | Escherichia coli MCR-1 Af 45 MIC [3, 5] [µg/mL] |
| --- | --- | --- | --- | --- | --- |
| CC[C@H](C)[C@H](NC(=O)[C@@H]1C[C@@H](O)CN1C(=O)[C@@H](N)C(C)C)C(=O)N[C@H](C(=O)N[C@@H](Cc1ccc(O)cc1)C(=O)N[C@@H]1C(=O)N[C@@H](CO)C(=O)N[C@@H](CCCNC(=N)N)C(=O)N[C@@H](CCN)C(=O)N[C@@H]([C@@H](C)O)C(=O)N[C@H](CCN)C(=O)N[C@@H](CCCCN)C(=O)N[C@H](C(=O)N[C@@H](CCN)C(=O)N[C@@H](CCCNC(=N)N)C(=O)N[C@@H](Cc2ccc(O)cc2)C(=O)O)CSSC1(C)C)[C@@H](C)O [Example 164] (HELM PEPTIDE1{V.[Hyp].I.T.Y.[Pen].S.R.[Dab].T.[NCC[C@@H](N[*:1])C(=O)[*:2]].K.C.[Dab].R.Y}$PEPTIDE1,PEPTIDE1,6:R3-13:R3$$$V2.0) | 0.25 |  | 0.125 | 0 | 0.25 |
| CC[C@H](C)[C@H](NC(=O)[C@@H]1C[C@@H](O)CN1C(=O)[C@@H](NC(=N)N)C(C)C)C(=O)N[C@@H](Cc1ccc(O)cc1)C(=O)N[C@@H](Cc1ccc(O)cc1)C(=O)N[C@@H]1C(=O)N[C@@H](CC(N)=O)C(=O)N[C@@H](CCCNC(=N)N)C(=O)N[C@@H](CCN)C(=O)N[C@@H]([C@@H](C)O)C(=O)N[C@H](CCN)C(=O)N[C@@H](CCCCN)C(=O)N[C@H](C(=O)N[C@@H](CCC(N)=O)C(=O)N[C@@H](CCCNC(=N)N)C(=O)N[C@@H](Cc2ccc(O)cc2)C(=O)O)CSSC1(C)C [Example 192] (HELM PEPTIDE1{[CC(C)[C@H](NC(=N)N)C(=O)[*:2]].[Hyp].I.Y.Y.[Pen].N.R.[Dab].T.[NCC[C@@H](N[*:1])C(=O)[*:2]].K.C.Q.R.Y}$PEPTIDE1,PEPTIDE1,6:R3-13:R3$$$V2.0) | 0.25 |  | 0.25 | 0 | 0.25 |
| CC[C@H](C)[C@H](NC(=O)[C@@H]1CCCN1C(=O)[C@@H](N)C(C)C)C(=O)N[C@@H](Cc1ccccc1)C(=O)N[C@@H](Cc1ccc(O)cc1)C(=O)N[C@H]1CSSC[C@@H](C(=O)N[C@@H](CCN)C(=O)N[C@@H](CCCNC(=N)N)C(=O)N[C@@H](Cc2ccc(O)cc2)C(=O)O)NC(=O)[C@H](CCCCN)NC(=O)[C@@H](CCN)NC(=O)[C@H]([C@@H](C)O)NC(=O)[C@H](CCN)NC(=O)[C@H](CCCNC(=N)N)NC(=O)[C@H](CC(N)=O)NC1=O [Example 145] (HELM PEPTIDE1{V.P.I.F.Y.C.N.R.[Dab].T.[NCC[C@@H](N[*:1])C(=O)[*:2]].K.C.[Dab].R.Y}$PEPTIDE1,PEPTIDE1,6:R3-13:R3$$$V2.0) | 0.125 |  | 0.0625 | 0 | 0.0625 |
| CC[C@H](C)[C@H](NC(=O)[C@@H]1C[C@@H](O)CN1C(=O)[C@@H](N)C(C)C)C(=O)N[C@H](C(=O)N[C@@H](Cc1ccc(O)cc1)C(=O)N[C@@H]1C(=O)N[C@@H](CC(N)=O)C(=O)N[C@@H](CCCNC(=N)N)C(=O)N[C@@H](CCN)C(=O)N[C@@H]([C@@H](C)O)C(=O)N[C@H](CCN)C(=O)N[C@@H](CCCCN)C(=O)N[C@H](C(=O)N[C@@H](CCN)C(=O)N[C@@H](CCCN)C(=O)N[C@@H](Cc2ccc(O)cc2)C(=O)O)CSSC1(C)C)[C@@H](C)O [Example 179] (HELM PEPTIDE1{V.[Hyp].I.T.Y.[Pen].N.R.[Dab].T.[NCC[C@@H](N[*:1])C(=O)[*:2]].K.C.[Dab].[Orn].Y}$PEPTIDE1,PEPTIDE1,6:R3-13:R3$$$V2.0) | 0.25 |  | 0.125 | 0 | 0.0625 |
